According to patent publication US20220000919A1, “PLACENTAL DERIVED NATURAL KILLER CELLS FOR TREATMENT OF CORONAVIRUS INFECTIONS” (Celularity Inc., priority 2020, published 2022):

Experiments:
CD34+ cells = experiment: NK culture of CD34+ cells with CRL compounds: cell expansion and NK differentiation; type: cell-based, human; details: for supported NK (PNK-007) expansion and differentiation: compound at 10 μM during the first 14 days of culture; for CD56+/CD11a+ subpopulation compared to SRI / expansion, differentiation and cytotoxicity profiles compared to SRI: PNK-007 culture, 10 μM; for cell expansion compared to SRI positive control at Day 35: compound and SRI at 10 μM; for CD34 cell expansion at Day 14 of the culture: compound at 10 μM
Description: Stage 1 medium: 90% Stem Cell Growth Medium (SCGM) (CellGro®), 10% Human Serum-AB, supplemented with 25 ng/mL or 250 ng/mL recombinant human thrombopoietin (TPO), 25 ng/mL recombinant human Flt3L, 27 ng/mL recombinant human stem cell factor (SCF), 25 ng/mL recombinant human IL-7, 0.05 ng/mL or 0.025 ng/mL recombinant human IL-6, 0.25 ng/mL or 0.125 ng/mL recombinant human granulocyte colony-stimulating factor (G-CSF), 0.01 ng/mL or 0.025 ng/mL recombinant human granulocyte-macrophage colony-stimulating factor (GM-CSF), 0.10% gentamicin, and 1 to 10 μm StemRegenin-1 (SR-1) or other stem cell mobilizing agent.
Stage 2 medium: 90% SCGM, 10% Human Serum-AB, supplemented with 25 ng/mL recombinant human Flt3L, 27 ng/mL recombinant human SCF, 25 ng/mL recombinant human IL-7, 20 ng/mL recombinant human IL-15, 0.05 ng/mL or 0.025 ng/mL recombinant human IL-6, 0.25 ng/mL or 0.125 ng/mL recombinant human granulocyte colony-stimulating factor (G-CSF), 0.01 ng/mL or 0.025 ng/mL recombinant human granulocyte-macrophage colony-stimulating factor (GM-CSF), 0.10% gentamicin, and 1 to 10 μm SRI or other stem cell mobilizing agent.
Stage 3 medium: 90% STEMMACS™, 10% Human Serum-AB, 0.025 mM 2-mercaptoethanol (55 mM), supplemented with 22 ng/mL recombinant human SCF, 1000 U/mL recombinant human IL-2, 20 ng/mL recombinant human IL-7, 20 ng/mL recombinant human IL-15, 0.05 ng/mL or 0.025 ng/mL recombinant human IL-6, 0.25 ng/mL or 0.125 ng/mL recombinant human granulocyte colony-stimulating factor (G-CSF), 0.01 ng/mL or 0.025 ng/mL recombinant human granulocyte-macrophage colony-stimulating factor (GM-CSF), and 0.10% gentamicin.
Cells are seeded at Day 0 at 3×10^4 cells/mL in Stage 1 media, and cells are tested for purity by a CD34+ and CD45+ count and viability by 7AAD staining. At Day 5 cells are counted and seeded to a concentration of 1×10^5 cells/mL with Stage 1 medium. At Day 7 cells are counted and seeded to a concentration of 1×10^5 cells/mL with Stage 1 medium.
At Day 10, cells are counted and seeded to a concentration of 1×10^5 cells/mL in Stage 2 medium. At Day 12, cells are counted and seeded to a concentration of 3×10^5 cells/mL in Stage 2 medium. At Day 14, cells are counted and seeded in Stage 3 medium. Cells are maintained in Stage 3 media until day 35.
UCB CD34+ cells were cultivated in presence of cytokines including thrombopoietin, SCF, Flt3 ligand, IL-7, IL-15 and IL-2 for 35 days to produce three-stage NK cells, as described in Example 1. Multi-color flow cytometry was used to determine the phenotypic characteristics of three-stage NK cells.
(§1) For biological testing, the compounds were provided to culture to evaluate their effects on NK cell expansion and differentiation. Specifically, donors of CD34+ cells (StemCell Technology) were thawed and expanded in vitro following NK culture protocol. During the first 14 days of the culture, each CRL compounds was dissolved in DMSO and added to the culture at 10 μM concentration. SRI (at 10 μM) served as a positive control compound, while DMSO alone without any compound served as a negative control. At the end of the culture on Day 35, cell expansion, natural killer (NK) cell differentiation and cytotoxicity of the cells against K562 tumor cell line were characterized. Due to the large number of the compounds, the testing was performed in two experiments, CRL1-11 and CRL 12-22. The same donors were used for each experiment. Positive and negative controls were also included in both experiments.

K562 tumor cells = experiment: Cytotoxicity assay of compound cultured cells against K562 tumor cells; type: cell-based; details: K562, 10:1 effector to target ratio
Description: as §1
Cytotoxicity assay was run using compound cultured cells against K562 tumor cells at 10:1 effector to target ratio (FIG. 5) to evaluate cell functions.

SMILES	supported NK (PNK-007) expansion and differentiation (CD34+ cells)	killing activities of cultured cells compared to those cultured with SRI (K562 tumor cells)	CD56+/CD11a+ subpopulation compared to SRI (CD34+ cells)	cell expansion compared to SRI positive control at Day 35 (CD34+ cells)	expansion, differentiation and cytotoxicity profiles compared to SRI (CD34+ cells)	CD34 cell expansion at Day 14 of the culture (CD34+ cells)
CCC(C)Nc1cc(-c2cncc(C#N)c2)nc(NCCc2c[nH]c3ccccc23)n1 (centres unmarked) [CRL7, 5-(2-((2-(1H-indol-3-yl)ethyl)amino)-6-(sec-butylamino)pyrimidin-4-yl)nicotinonitrile]	all the compounds except CRL7 and CRL13 supported PNK-007 expansion and differentiation	–	–	–	–	–
CCC(C)Nc1nc(NCCc2c[nH]c3ccccc23)c2ccccc2n1 (centres unmarked) [CRL13, N^4-(2-(1H-indol-3-yl)ethyl)-N^2-(sec-butyl)quinazoline-1,4-diamine]	all the compounds except CRL7 and CRL13 supported PNK-007 expansion and differentiation	–	–	–	–	–
CC(C)c1csc2c(NCCc3c[nH]c4ccccc34)nc(-c3cncc(C#N)c3)nc12 [CRL17, 5-(4-((2-(1H-indol-3-yl)ethyl)amino)-7-isopropylthieno[3,2-d]pyrimidin-2-yl)nicotinonitrile]	–	increased killing activities of the cells	increased CD56+/CD11a+ subpopulation	slightly less expansion compared to SRI	–	–
CC(C)c1csc2c(NCCc3c[nH]c4ccccc34)nc(-c3cncc(F)c3)nc12 [CRL18, N-(2-(1H-indol-3-yl)ethyl)-2-(5-fluoropyridin-3-yl)-7-isopropylthieno[3,2-d]pyrimidin-4-amine]	–	increased killing activities of the cells	increased CD56+/CD11a+ subpopulation	slightly less expansion compared to SRI	–	–
Fc1cncc(-c2nc(NCCc3c[nH]c4ccccc34)c3occc3n2)c1 [CRL19, N-(2-(1H-indol-3-yl)ethyl)-2-(5-fluoropyridin-3-yl)furo[3,2-d]pyrimidin-4-amine]	–	–	–	–	very similar expansion, differentiation and cytotoxicity profiles as SRI	highest CD34 cell expansion
Cc1cncc(-c2nc(NCCc3c[nH]c4ccccc34)c3occc3n2)c1 [CRL20, N-(2-(1H-indol-3-yl)ethyl)-2-(5-methylpyridin-3-yl)furo[3,2d]pyrimidin-4-amine]	–	–	–	–	very similar expansion, differentiation and cytotoxicity profiles as SRI	highest CD34 cell expansion
Cc1cncc(-c2nc(NCCc3c[nH]c4ccccc34)c3scc(C(C)C)c3n2)c1 [CRL21, N-(2-(1H-indol-3-yl)ethyl)-7-isopropyl-2-(5-methylpyridin-3-yl)thieno[3,2-d]pyrimidin-4-amine]	–	increased killing activities of the cells	increased CD56+/CD11a+ subpopulation	slightly less expansion compared to SRI	–	–
N#Cc1cncc(-c2nc(NCCc3c[nH]c4ccccc34)c3occc3n2)c1 [CRL22, 5-(4-((2-(1H-indol-3-yl)ethyl)amino)furo[3,2-d]pyrimidin-2-yl)nicotinonitrile]	–	–	–	–	very similar expansion, differentiation and cytotoxicity profiles as SRI	highest CD34 cell expansion
